The record followed here is patent publication US10561672B2, “Stable fixed dose pharmaceutical composition comprising mometasone and olopatadine” (GLENMARK SPECIALTY S.A., priority 2013, dated 2020).

Data set [1] can be described thus: Clinical trial, single-dose cross-over: pharmacokinetics of mometasone furoate (Example 6). The class given is in vivo. As to conditions: single dose nasal spray, human subjects. The source says:
(§1) The clinical trial was a randomized, single-center, single-dose, open-label, three-period, six-sequence, cross-over study to evaluate three treatments administered by nasal spray. […] The study consisted of a screening visit, 3 single-dose treatment periods with washout periods of 7 to 14 days between dosing in each treatment period, an early withdrawal visit if applicable, and a follow-up telephone call (or visit) 1 to 7 days after completing the third treatment period. A total of 30 subjects were randomized to 1 of 6 treatment sequences and received at least 1 dose of study drug. All 30 subjects were included in the safety analysis set and the pharmacokinetic subset. All but 2 subjects completed the study per protocol.

Data set [2] can be described thus: Clinical trial, single-dose cross-over: pharmacokinetics of olopatadine (Example 5). The note with it: single dose nasal spray, human subjects. The class given is in vivo.
Description: as §1, with “as a” for “by”

Structures are written as SMILES.

In the case of `C[C@@H]1C[C@H]2[C@@H]3CCC4=CC(=O)C=C[C@]4(C)[C@@]3(Cl)[C@@H](O)C[C@]2(C)[C@@]1(OC(=O)c1ccco1)C(=O)CCl` [mometasone furoate], the “Quantifiable concentrations observed until the last time point” value in data set [1] is 72 h.

As for `CN(C)CC/C=C1/c2ccccc2COc2ccc(CC(=O)O)cc21` [olopatadine], in data set [2], the “Quantifiable concentrations observed until the last time point” value stood at 48 h.
